Measurements from the CheMixHub viscosity set.

Experiment: xn = mol fraction of the nth substance listed

CN1CCOC1=O + CS(C)=O
viscosity [mPa·s], 101.33 kPa
Conditions | 298.15 K | 308.15 K | 318.15 K
x1 = 0.0465 | 2.004 | 1.663 | 1.404
x1 = 0.0841 | 2.012 | 1.673 | 1.413
x1 = 0.1676 | 2.037 | 1.698 | 1.437
x1 = 0.2419 | 2.06 | 1.72 | 1.459
x1 = 0.3415 | 2.09 | 1.751 | 1.49
x1 = 0.4275 | 2.126 | 1.782 | 1.518
x1 = 0.5401 | 2.171 | 1.826 | 1.558
x1 = 0.6395 | 2.218 | 1.872 | 1.603
x1 = 0.7524 | 2.28 | 1.923 | 1.645
x1 = 0.8785 | 2.359 | 1.99 | 1.703
x1 = 0.9514 | 2.415 | 2.038 | 1.744

CC1(C)OC1C#N (stereo not given) + ClC(Cl)(Cl)Cl
viscosity [mPa·s], 101 kPa
Conditions | 293.15 K | 298.15 K | 303.15 K | 313.15 K | 323.15 K
x1 = 0.009 | 0.983 | 0.938 | 0.906 | 0.779 | 0.67
x1 = 0.087 | 0.98 | 0.937 | 0.877 | 0.754 | 0.675

CCCCCCCCCCBr + ClC(Cl)(Cl)Cl
101 kPa
Conditions | viscosity [mPa·s]
297.75 K, x1 = 0.0484 | 0.9823
297.75 K, x1 = 0.0969 | 1.057
297.75 K, x1 = 0.1945 | 1.208
297.75 K, x1 = 0.3918 | 1.52
297.75 K, x1 = 0.5923 | 1.858
297.75 K, x1 = 0.7944 | 2.106
303.95 K, x1 = 0.0456 | 0.8918
303.95 K, x1 = 0.0914 | 0.9574
303.95 K, x1 = 0.1852 | 1.105
303.95 K, x1 = 0.2667 | 1.2
303.95 K, x1 = 0.5802 | 1.618
303.95 K, x1 = 0.7825 | 1.864
313.55 K, x1 = 0.0457 | 0.7792
313.55 K, x1 = 0.092 | 0.8323
313.55 K, x1 = 0.1856 | 0.948
313.55 K, x1 = 0.378 | 1.171
313.55 K, x1 = 0.5776 | 1.377
313.55 K, x1 = 0.7832 | 1.562

S + ClC(Cl)Cl
298.15 K, 101 kPa
Conditions | viscosity [mPa·s]
x1 = 0.00673 | 0.5257
x1 = 0.00998 | 0.5206

FC(F)(Cl)C(F)(F)Cl + FC(F)Cl
101 kPa
Conditions | viscosity [mPa·s]
293.25 K, x2 = 0.182 | 0.3196
293.25 K, x2 = 0.457 | 0.2521
293.25 K, x2 = 0.568 | 0.2391
293.25 K, x2 = 0.663 | 0.2175
293.25 K, x2 = 0.748 | 0.1992
293.35 K, x2 = 0.947 | 0.1767
293.75 K, x2 = 0.329 | 0.2853
312.85 K, x2 = 0.457 | 0.2097
312.85 K, x2 = 0.663 | 0.1757
312.95 K, x2 = 0.182 | 0.2474
312.95 K, x2 = 0.821 | 0.1515
313.05 K, x2 = 0.568 | 0.1902
313.05 K, x2 = 0.748 | 0.1648
313.05 K, x2 = 0.947 | 0.141
313.15 K, x2 = 0.891 | 0.1461
313.55 K, x2 = 0.329 | 0.2284

Clc1ccc(Cl)c(Cl)c1 + Nc1cccc(Cl)c1
viscosity [mPa·s], 100 kPa
Conditions | x2 = 0.0895 | x2 = 0.1795 | x2 = 0.3125 | x2 = 0.4256 | x2 = 0.5169 | x2 = 0.6254 | x2 = 0.7145 | x2 = 0.8102 | x2 = 0.9012
303.15 K | 1.993 | 2.225 | 2.565 | 2.851 | 3.079 | 3.348 | 3.566 | 3.798 | 4.017
308.15 K | 1.825 | 2.033 | 2.337 | 2.593 | 2.797 | 3.037 | 3.231 | 3.437 | 3.631
313.15 K | 1.658 | 1.843 | 2.111 | 2.336 | 2.516 | 2.727 | 2.896 | 3.078 | 3.248
318.15 K | 1.493 | 1.653 | 1.887 | 2.083 | 2.237 | 2.419 | 2.566 | 2.722 | 2.867
